Experimental data: ChEMBL document CHEMBL1131364, “Novel modified tripeptide inhibitors of alpha 4 beta 7 mediated lymphoid cell adhesion to MAdCAM-1” (Bioorg Med Chem Lett, 1998)
Numbered stars: 1 amine (or outer) side, 2 acyl side, 3 side chain; on linkers, the order of the positions; unused ones are H or OH. Peptide text beside a SMILES is read from it. * marks the point of attachment. CO = O=C([*:1])[*:2]; NHPh = c1ccc(N*)cc1

Assay: In vitro inhibition of RPMI 8866 cell adhesion to human MAdCAM-1 IgG chimera.
Format: cell-based

Row | SMILES | IC50 [µM]
1 | COc1ccc(CCNC(=O)[C@@H](NC(=O)[C@H](CC(=O)O)NC(=O)[C@H](CC(C)C)NC(=O)c2cc3ccccc3cn2)[C@@H](C)O)cc1 | > 25
2 | CC(C)C[C@H](NC(=O)c1cc2ccccc2cn1)C(=O)N[C@@H](CC(=O)O)C(=O)N[C@H](C(=O)NCc1ccc(F)cc1)[C@@H](C)O | 5.2
3 | CC(C)C[C@H](NC(=O)c1coc2ccccc2c1=O)C(=O)N[C@@H](CC(=O)O)C(=O)NC(C(N)=O)C(O)c1ccccc1 (some centres undefined) | 6.4
4 | CC(C)C[C@H](NC(=O)c1ccc([N+](=O)[O-])cc1)C(=O)N[C@@H](CC(=O)O)C(=O)N[C@H](C(N)=O)[C@@H](C)O | 9
5 | COc1ccc(C(=O)N[C@@H](CC(C)C)C(=O)N[C@@H](CC(=O)O)C(=O)N[C@H](C(N)=O)[C@@H](C)O)cc1 | > 25
6 | CC(C)C[C@H](NS(=O)(=O)c1ccccc1)C(=O)N[C@@H](CC(=O)O)C(=O)N[C@H](C(N)=O)[C@@H](C)O | > 25
7 | CC(=O)N[C@@H](CC(C)C)C(=O)N[C@@H](CC(=O)O)C(=O)N[C@H](C(N)=O)[C@@H](C)O (Ac-Leu-Asp-Thr-NH2) | 250
8 | CC(C)C[C@H](NC(=O)c1ccccc1)C(=O)N[C@@H](CC(=O)O)C(=O)N[C@H](C(N)=O)[C@@H](C)O (HELM PEPTIDE1{[O=C(c1ccccc1)[*:2]].L.D.T.[am]}$$$$V2.0) | 8.2
9 | CC(C)C[C@H](NC(=O)Nc1ccccc1)C(=O)N[C@@H](CC(=O)O)C(=O)N[C@H](C(N)=O)[C@@H](C)O ({NHPh-CO}-Leu-Asp-Thr-NH2) | > 25

Now from value to compound:

Row | IC50 [µM] | SMILES
10 | 5.2 | CC(C)C[C@H](NC(=O)c1cc2ccccc2o1)C(=O)N[C@@H](CC(=O)O)C(=O)N[C@H](C(=O)NCc1ccc(F)c(F)c1)[C@@H](C)O
11 | 3 | COc1ccc(CNC(=O)[C@@H](NC(=O)[C@H](CC(=O)O)NC(=O)[C@H](CC(C)C)NC(=O)c2cc3ccccc3cn2)[C@@H](C)O)cc1
12 | 3.9 | CC(C)C[C@H](NC(=O)c1cc2ccccc2cn1)C(=O)N[C@@H](CC(=O)O)C(=O)N[C@@H](C(N)=O)[C@@H](C)O
13 | 1.3 | CC(C)C[C@H](NC(=O)c1coc2ccccc2c1=O)C(=O)N[C@@H](CC(=O)O)C(=O)N[C@H](C(N)=O)[C@@H](C)O
14 | 4.4 | CC(C)C[C@H](NC(=O)c1cc2ccccc2o1)C(=O)N[C@@H](CC(=O)O)C(=O)N[C@H](C(=O)NCc1ccc2c(c1)OCO2)[C@@H](C)O
15 | 3.1 | CC(C)C[C@H](NC(=O)c1cc2ccccc2cn1)C(=O)N[C@@H](CC(=O)O)C(=O)N[C@H](C(N)=O)[C@@H](C)O
16 | 2.3 | CC(C)C[C@H](NC(=O)c1cc2ccccc2o1)C(=O)N[C@@H](CC(=O)O)C(=O)N[C@H](C(N)=O)[C@@H](C)O
17 | 1.1 | CC(C)C[C@H](NC(=O)c1cc2ccccc2cn1)C(=O)N[C@@H](CC(=O)O)C(=O)N[C@H](C(=O)NCc1ccncc1)[C@@H](C)O
18 | 4.9 | CC(C)C[C@H](NC(=O)/C=C/c1ccccc1)C(=O)N[C@@H](CC(=O)O)C(=O)N[C@H](C(N)=O)[C@@H](C)O
19 | 4.7 | CC(C)C[C@H](NC(=O)c1coc2ccccc2c1=O)C(=O)N[C@@H](CC(=O)O)C(=O)N[C@H](C(N)=O)[C@H](C)O
